Assays:
H3N2 (influenza virus) [1] = conditions: H3N2 in host cell MDCK
H1N1 (influenza virus) [2] = conditions: H1N1 in host cell MDCK
[3] = system: Dengue Virus 2 (type 2 dengue virus); test: Inhibition of viral replication (CPE) at cellular level, Dengue Virus 2 in Vero; format: cell-based; conditions: Dengue Virus 2 in host cell Vero
From the text: Activity Test for Inhibition of Viral Replication at Cellular Level […]
The present inventors tested inhibitory effects of the compound of the present invention on cytopathic effects (CPE) caused by viral infection on mammalian cells.
Half-inhibitory concentration IC50 and half toxic concentration TC50 of the compound against Dengue Virus 2 (type 2 dengue virus) in host cell Vero (African green monkey kidney cell).

in vitro [4] = conditions: African green monkey, TC50, host cell Vero
H3N2 (influenza virus) [5] = test: microbe, parasite or virus in culture; conditions: Influenza A virus, H3N2, MDCK
in vitro [6] = conditions: dog
[7] = system: JEV (Japanese encephalitis virus); test: Inhibition of viral replication (CPE) at cellular level, JEV in Vero
[8] = Determination of TC50 (half toxicity concentration) in RD cells; format: cell-based; conditions: human, host cell RD, EV71 table
[9] = system: RSV (human respiratory syncytial virus); test: Inhibition of viral replication (CPE) at cellular level, RSV in Vero
H7N9 (influenza virus) [10] = conditions: H7N9 in host cell MDCK
[11] = system: EV71 (hand-foot-and-mouth virus); test: microbe, parasite or virus in culture; conditions: Enterovirus A
Zika Virus = test: Inhibition of viral replication (CPE) at cellular level, Zika Virus in Vero
H1N1 (influenza virus) [12] = test: microbe, parasite or virus in culture; conditions: Influenza A virus, H1N1, MDCK
[13] = system: H7N9 avian influenza virus; format: in vivo; conditions: lethal dose H7N9 (1MLD50) nasal, Compound 16 10 mg/kg, Oseltamivir 20 mg/kg, intraperitoneal, once a day for first 5 days, FIG. 4
[14] = system: EV71 (hand-foot-and-mouth virus); conditions: EV71 in host cell RD
influenza virus = test: microbe, parasite or virus in culture; format: cell-based; conditions: unidentified influenza virus, MDCK, read-out: inhibitory effect on influenza virus
H7N9 (influenza virus) [15] = test: microbe, parasite or virus in culture; conditions: Influenza A virus, H7N9, MDCK

SMILES: O=C(O)c1ccccc1/C=N/Nc1nc(-c2ccccc2Cl)cs1 [Compound 16, (E)-4-(2-chlorophenyl)-2-(2-carboxybenzylidenehydrazino)thiazole]
- SI (TC50/IC50) (H3N2 (influenza virus) [1]): >250
- SI (TC50/IC50) (H1N1 (influenza virus) [2]): >100
- SI (TC50/IC50) [3]: 167
- IC50 ([3]; CPE): 0.12 µM
- CC50 (in vitro [4]; Dengue Virus 2 table): 20 µM
- CC50 (in vitro [4]; RSV table): 20 µM
- CC50 (in vitro [4]; Zika Virus table): 20 µM
- IC50 (H3N2 (influenza virus) [5]): 0.2 µM
- CC50 (in vitro [6]): > 50 µM
- SI (TC50/IC50) ([7]; JEV in host cell Vero): 100
- IC50 ([7]; Japanese encephalitis virus, Vero): 0.2 µM
- CC50 [8]: 1 µM
- inhibitory effects on human respiratory syncytial virus RSV ([9]; FIG. 3): a certain inhibitory effects
- SI (TC50/IC50) ([9]; RSV in host cell Vero): 4
- IC50 ([9]; human respiratory syncytial virus, Vero): 5 µM
- SI (TC50/IC50) (H7N9 (influenza virus) [10]): >41.7
- IC50 [11]: 0.3 µM
- SI (TC50/IC50) (Zika Virus; Zika Virus in host cell Vero): 133
- IC50 (Zika Virus; Zika virus, Vero): 0.15 µM
- IC50 (H1N1 (influenza virus) [12]): 0.5 µM
- therapeutic effect, recovery in the body weight of infected mice [13]: therapeutic effects similar to the positive drug Oseltamivir
- SI (TC50/IC50) [14]: 3.3
- IC50 (influenza virus): ~2 µM
- IC50 (H7N9 (influenza virus) [15]): 1.2 µM

— US11590109B2 (priority 2016, dated 2023)
